In article PMC11649115, “In vitro safety evaluation of dopamine D3R antagonist, R-VK4-116, as a potential medication for the treatment of opioid use disorder” (PLOS ONE, 2024):
Several values for one entry are separate records, joined by “and”; a condition that tells them apart may be missing. Equal values may be shown once. Read-outs that look alike come from different tables or passages of the source.

How the values were obtained:
[1] = Plasma protein binding, Sephadex G-25 gel filtration; assay type: in vitro ADME, human; settings: human, plasma; for fraction unbound at 2 h, 0.5 μM: human plasma, nominal 0.5 μM
Method: (§1) The gel filtration used solid-phase extraction columns containing hydrated gel filtration beads (Sephadex G-25). […] In this method, the amount of analyte accompanying the proteins (i.e., protein-bound R-VK4-116) before and after filtration was assayed for analyte concentration by LC-MS/MS.

plasma proteins = assay: as above; assay type: in vitro ADME, human; settings: human, plasma, human plasma, nominal 1 μM; read-out: % Bound, Mean ± SD (converted)
Method: as §1

human plasma proteins = assay: as above; assay type: in vitro ADME; settings: human plasma
Method: as §1

OAT3 = target: T1, OAT3 (Homo sapiens, UniProt Q8TCC7); assay: Transporter mediated assay (substrate/inhibitor), MDCK-II cells; assay type: in vitro ADME
T1 construct: expressed in transfected cells; host or cells: MDCK-II cells
T1 sequence (Q8TCC7 1-542): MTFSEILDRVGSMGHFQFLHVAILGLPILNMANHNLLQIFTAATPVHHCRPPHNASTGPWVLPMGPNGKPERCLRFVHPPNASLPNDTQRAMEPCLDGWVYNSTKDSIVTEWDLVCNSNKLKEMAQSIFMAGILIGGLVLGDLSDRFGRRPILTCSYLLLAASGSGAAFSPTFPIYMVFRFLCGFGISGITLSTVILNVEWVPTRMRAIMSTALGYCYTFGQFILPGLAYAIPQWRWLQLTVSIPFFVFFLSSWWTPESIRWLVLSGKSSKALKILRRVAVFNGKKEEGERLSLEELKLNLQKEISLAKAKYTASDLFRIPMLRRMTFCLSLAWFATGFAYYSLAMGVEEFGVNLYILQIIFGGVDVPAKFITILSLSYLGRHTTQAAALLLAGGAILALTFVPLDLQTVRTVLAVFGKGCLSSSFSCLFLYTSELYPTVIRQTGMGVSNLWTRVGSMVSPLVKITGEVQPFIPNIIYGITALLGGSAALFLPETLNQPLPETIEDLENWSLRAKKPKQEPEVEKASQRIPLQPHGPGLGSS
Method: The MDCK-II cells were treated to express the transporter of interest. The transport of each probe substrate was determined by radiometric detection (Fig 1 in S1 File). […] For the uptake assay, the net transporter-mediated uptake-rate (V) of the substrate by each SLC transporter was calculated as follows: Transporter–mediatedupdaterate(pmol/min/cm^2)=(Cellularaccumulationincellsexpressingthetransporter)−(Meancellularaccumulationincontrolcells)/Surfacearea×incubationtime
Fold of activity and percent inhibition were determined as follows: Foldofactivity=(Meanuptakerate)transporterexpressingcells/(Meanuptakerate)controlcells Percentinhibition=100−100×(Transport‐mediatedupdaterate)withinhibitor/(Transport‐mediatedupdaterate)vehiclecontrol

CYP2C8 = target: T2, CYP2C8 (Homo sapiens, UniProt P10632); assay: CYP inhibition in human liver microsomes; settings: human liver microsomes
T2 sequence (P10632 1-490): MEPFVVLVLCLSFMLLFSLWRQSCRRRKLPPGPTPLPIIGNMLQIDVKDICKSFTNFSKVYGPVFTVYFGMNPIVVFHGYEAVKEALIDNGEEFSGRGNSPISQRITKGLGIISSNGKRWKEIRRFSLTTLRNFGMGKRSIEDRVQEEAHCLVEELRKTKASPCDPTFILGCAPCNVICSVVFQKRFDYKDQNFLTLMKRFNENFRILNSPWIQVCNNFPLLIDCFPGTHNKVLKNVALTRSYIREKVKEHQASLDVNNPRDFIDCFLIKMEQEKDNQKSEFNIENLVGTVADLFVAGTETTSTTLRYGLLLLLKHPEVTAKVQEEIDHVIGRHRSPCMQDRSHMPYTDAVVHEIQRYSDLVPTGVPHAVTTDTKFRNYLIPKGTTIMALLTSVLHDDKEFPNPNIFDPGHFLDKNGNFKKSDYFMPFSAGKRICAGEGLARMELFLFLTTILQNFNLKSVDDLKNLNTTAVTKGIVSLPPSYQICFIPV

[2] = Metabolic stability in liver microsomes; settings: rat, pH 7.4
cardiovascular effects = settings: rats, up to 25 mg/kg ref 9; cited from earlier work
Kir2.1 = target: T3, Kir2.1 (Homo sapiens, UniProt P63252); assay: CiPA IonChannelProfiler Cardiac Panel, QPatch; assay type: cell-based; settings: Kir2.1, 100 μM
T3 sequence (P63252 1-427): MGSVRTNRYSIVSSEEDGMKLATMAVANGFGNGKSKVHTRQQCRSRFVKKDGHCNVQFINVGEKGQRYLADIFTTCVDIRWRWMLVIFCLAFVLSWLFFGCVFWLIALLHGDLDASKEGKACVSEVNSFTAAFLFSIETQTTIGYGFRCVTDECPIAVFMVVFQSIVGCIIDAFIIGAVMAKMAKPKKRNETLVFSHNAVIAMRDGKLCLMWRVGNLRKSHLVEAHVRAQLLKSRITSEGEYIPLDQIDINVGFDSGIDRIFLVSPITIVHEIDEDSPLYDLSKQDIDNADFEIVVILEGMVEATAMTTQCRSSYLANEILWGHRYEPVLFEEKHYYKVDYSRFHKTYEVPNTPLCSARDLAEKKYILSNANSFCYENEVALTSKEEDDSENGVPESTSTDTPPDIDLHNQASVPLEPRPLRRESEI

[3] = tested on: oxycodone self-administration; set-up: method as in PMID 30555159; settings: rodents, 5, 15 and 25 mg/kg ref 6; cited from earlier work
HepG2 cells = assay: Lysosomal trapping assay (Lyso-ID Red); assay type: cell-based; settings: HepG2, 0.1, 1.0, and 10.0 μM, up to 72 hr
Method: After incubation timepoint, the treated cells were washed and incubated with fluorescent dual color detection reagent for 60 min. Subsequently, the fluorescence was measured with Spectramax ID5. An increase in red signal without significant loss (no more than 30%) of the blue signal indicates the accumulation of test article within the cells arising from an increase in lysosome or lysosome-like vesicles in size and/or number. The assay results were presented as fluorescence fold change for red stain and blue stain individually and were calculated as follows: Fluorescencefoldchange=RelativeFluorescenceUnit(RFU)measuredfortestarticleconcentration/RFUmeasuredforrespectivesolventcontrol
The acceptance criteria for significant lysosomal perturbation was a ≥ 2-fold increase in red fluorescence with no loss of blue fluorescence.

[4] = heat-inactivated liver microsomes

CCc1cc(Cl)c(OC)c(N2CCN(CC(O)CCNC(=O)c3cc4ccccc4[nH]3)CC2)c1 (centres unmarked) [R-VK4-116, N-(4-(4-(3-chloro-5-ethyl-2-methoxyphenyl)piperazin-1-yl)-3-hydroxybutyl)-1H-indole-2-carboxamide] showed a fraction unbound at 2 h, 0.5 μM ([1]; read-out: % Bound (converted)) of 0.026, a fraction unbound at 2 h, 0.5 μM ([1]; read-out: % Bound, Mean ± SD (converted)) of 0.028 and a fraction unbound at 2 h ([1]; rat, dog, range over human, rat and dog plasma, read-out: bound to plasma proteins) of 0.07 to 0.17. For the same compound, the fraction unbound at 2 h, 1 μM (plasma proteins) was 0.141, the “% Bound” value (human plasma proteins; nominal 0.5 μM) was 96.9% and the “Ratio [R-VK4-116] Before Filtration / Eluate, Mean ± SD” value (human plasma proteins; nominal 0.5 μM) was 0.988 ± 0.13. For the same compound, the “[R-VK4-116] Before Filtration” value (human plasma proteins; nominal 0.5 μM) was 0.550 µM and 0.597 µM and 0.598 µM, the “[R-VK4-116] In Sephadex G-25 Eluate” value (human plasma proteins; nominal 0.5 μM) was 0.520 µM and 0.715 µM and 0.557 µM and the “% Bound” value (human plasma proteins; nominal 1 μM) was 92.5% and 81.6% and 83.7%. For the same compound, the “Ratio [R-VK4-116] Before Filtration / Eluate” value (human plasma proteins; nominal 1 μM) was 1.50 and 1.62 and 1.55, the “Ratio [R-VK4-116] Before Filtration / Eluate, Mean ± SD” value (human plasma proteins; nominal 1 μM) was 1.56 ± 0.06 and the “[R-VK4-116] Before Filtration” value (human plasma proteins; nominal 1 μM) was 0.923 µM and 0.995 µM and 1.02 µM. The “[R-VK4-116] In Sephadex G-25 Eluate” value (human plasma proteins; nominal 1 μM) was 0.614 µM and 0.615 µM and 0.657 µM, the “fold difference in mean uptake rate (substrate test)” value (OAT3; OAT3, 1 μM, transporter cells vs control cells) was under 2 fold and the “Inhibition (%)” value (OAT3; OAT3, 0.1% BSA, 10 μM) was “no statistically significant inhibition”. For the same compound, the inhibition at 10 µM (OAT3; human, polarized monolayer of MDCK-II cells expressing OAT3, OAT3, 0.1% BSA, 10 μM) was -5.73 ± 8.06%, the CYP2C8 inhibition (CYP2C8; up to 100 μM) was “did not inhibit CYP significantly” and the activity at 20 min, 0.1 µM (CYP2C8; human, probe paclitaxel) was 85.9 ± 18.2%. For the same compound, the activity at 20 min, 0.3 µM (CYP2C8; human, probe paclitaxel) was 68.2 ± 2.8%, the activity at 20 min, 1 µM (CYP2C8; human, probe paclitaxel) was 70.5 ± 7.1% and the activity at 20 min, 3 µM (CYP2C8; human, probe paclitaxel) was 95.7 ± 11.2%. For the same compound, the activity at 20 min, 10 µM (CYP2C8; human, probe paclitaxel) was 89.8 ± 19.7%, the activity at 20 min, 30 µM (CYP2C8; human, probe paclitaxel) was 75.8 ± 4.5% and the activity at 20 min, 60 µM (CYP2C8; human, probe paclitaxel) was 75.3 ± 6.4%. The activity at 20 min, 100 µM (CYP2C8; human, probe paclitaxel) was 80.6 ± 15.2%, the remaining at 0 h, 1 μM [2, 4] was 100% and the remaining at 0 h, 10 μM [2, 4] was 100%. For the same compound, the remaining at 2 h, 1 μM [2, 4] was 94.9%, the remaining at 2 h, 10 μM [2, 4] was 95.4% and the remaining at 0 h, 1 μM ([2]; liver microsomes) was 100%. The remaining at 0 h, 10 μM ([2]; liver microsomes) was 100%, the remaining at 0.5 h, 1 μM ([2]; liver microsomes) was 79.4% and the remaining at 0.5 h, 10 μM ([2]; liver microsomes) was 87.1%. It also gave a remaining at 1 h, 1 μM ([2]; liver microsomes) of 56.8%, a remaining at 1 h, 10 μM ([2]; liver microsomes) of 79.7% and a remaining at 1.5 h, 1 μM ([2]; liver microsomes) of 45.5%. It also gave a remaining at 1.5 h, 10 μM ([2]; liver microsomes) of 73.3%, a remaining at 2 h, 1 μM ([2]; liver microsomes) of 37.5% and a remaining at 2 h, 10 μM ([2]; liver microsomes) of 69.4%. For the same compound, the “potentiation of the cardiovascular effects of cocaine or oxycodone” value (cardiovascular effects) was “did not potentiate”, the inhibition at 100 µM (Kir2.1; read-out: inhibition, End) was 97.2% and the inhibition at 100 µM (Kir2.1; read-out: inhibition, Peak) was 52.6%. For the same compound, the oxycodone self-administration [3] was “decreased” and the “red lysosomal stain signal / blue nuclear stain signal over solvent control” value (HepG2 cells) was “No significant increase in red lysosomal stain signal or decrease in blue nuclear stain signal”.
